The results in this text go back to ChEMBL document CHEMBL1201862, “PubChem BioAssay data set” (2004).

The source made the active and inactive calls.

The target of test [1] is T1, Corticotropin-releasing factor receptor 2/Corticotropin-releasing factor-binding protein (Homo sapiens, UniProt P24387+Q13324).
T1 sequence (Q13324 whole entry): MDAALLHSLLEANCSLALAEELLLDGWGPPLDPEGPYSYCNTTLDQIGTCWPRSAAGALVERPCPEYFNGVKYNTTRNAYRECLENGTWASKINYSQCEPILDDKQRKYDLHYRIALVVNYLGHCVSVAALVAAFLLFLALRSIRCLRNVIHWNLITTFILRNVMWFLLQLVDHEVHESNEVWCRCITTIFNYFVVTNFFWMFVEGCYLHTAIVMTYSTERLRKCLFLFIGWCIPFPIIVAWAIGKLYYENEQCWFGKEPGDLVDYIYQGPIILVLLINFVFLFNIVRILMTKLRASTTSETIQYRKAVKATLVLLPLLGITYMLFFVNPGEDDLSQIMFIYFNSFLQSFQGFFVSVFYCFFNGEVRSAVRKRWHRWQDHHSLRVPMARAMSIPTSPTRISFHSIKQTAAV
T1 sequence (P24387 whole entry): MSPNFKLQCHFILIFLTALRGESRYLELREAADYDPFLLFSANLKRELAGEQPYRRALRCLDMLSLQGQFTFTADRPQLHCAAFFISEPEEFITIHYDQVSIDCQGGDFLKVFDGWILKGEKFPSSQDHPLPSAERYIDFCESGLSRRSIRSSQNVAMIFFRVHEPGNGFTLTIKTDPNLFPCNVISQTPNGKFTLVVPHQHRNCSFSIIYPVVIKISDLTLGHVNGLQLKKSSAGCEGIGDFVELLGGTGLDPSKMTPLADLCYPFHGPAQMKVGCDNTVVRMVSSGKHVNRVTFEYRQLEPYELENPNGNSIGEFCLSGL
Description: Dose Response confirmation of uHTS hits for small molecule antagonists of the CRF-binding protein and CRF-R2 receptor complex. It counts as functional. Conditions: read-out: IC50_Mean.

Test [2] addresses T1, Corticotropin-releasing factor receptor 2/Corticotropin-releasing factor-binding protein. Description: activators of CRF receptor 2 with binding protein – uHTS hits, confirmation (AID 602473). It counts as functional. The conditions noted are these: read-out: EC50_Mean.
Test [3] in a line: HEp-2 cell cytotoxicity, dose response, cytotoxicity control for RSV inhibitor project, HTS (AID 2410). In kind it is functional. The conditions noted are these: human respiratory syncytial virus.
For another test, the system named is INS1. Kind of test: beta cell apoptosis inhibitors, cytokine rescue, dose response, luminescence, retest (AID 449756).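 Also: cell death triggered by IL-1 beta plus TNF-alpha plus IFN-gamma mixture; protective hits raise ATP signal compared with cytokine alone wells.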 In kind it is functional, cell-based. Conditions: Rattus norvegicus.
The next test addresses Large T antigen (Simian virus 40, UniProt P03070). It counts as functional, Betapolyomavirus macacae.
The target in test [4] is T2, Polyadenylate-binding protein 1 (Homo sapiens, UniProt P11940). Kind of test: PABP1 MLLE–PAM2 interaction inhibitors, dose response, miRNA deadenylation inhibitor project, biochemical, fluorescence polarization, Cy5-PAM2 peptide, secondary (AID 602260). It counts as functional. The conditions noted are these: read-out: IC50_Mean.
T2 sequence (P11940 whole entry): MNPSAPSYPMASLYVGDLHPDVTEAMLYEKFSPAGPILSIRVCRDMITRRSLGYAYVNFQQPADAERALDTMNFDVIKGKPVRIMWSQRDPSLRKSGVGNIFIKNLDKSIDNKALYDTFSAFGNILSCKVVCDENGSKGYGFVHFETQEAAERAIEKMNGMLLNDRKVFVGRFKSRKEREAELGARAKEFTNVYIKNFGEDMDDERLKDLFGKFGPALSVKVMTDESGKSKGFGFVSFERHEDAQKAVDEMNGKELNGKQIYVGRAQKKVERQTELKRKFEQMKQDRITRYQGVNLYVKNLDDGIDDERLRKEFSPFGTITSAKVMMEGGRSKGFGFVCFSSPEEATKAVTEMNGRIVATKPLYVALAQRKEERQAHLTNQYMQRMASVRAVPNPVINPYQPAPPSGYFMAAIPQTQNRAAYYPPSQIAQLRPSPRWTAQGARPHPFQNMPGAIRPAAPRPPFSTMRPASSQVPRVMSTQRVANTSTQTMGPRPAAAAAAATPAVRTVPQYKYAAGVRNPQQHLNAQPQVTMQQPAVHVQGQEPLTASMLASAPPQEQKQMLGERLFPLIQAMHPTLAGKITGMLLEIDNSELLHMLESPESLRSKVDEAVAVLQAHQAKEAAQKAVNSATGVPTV
Test [5] has as its target T2, Polyadenylate-binding protein 1. Description: PABP1 MLLE–PAM2 binding inhibitor potency, dose response, biochemical, fluorescence polarization, FITC-PAM2 peptide (AID 602259). In kind it is functional. Conditions: read-out: IC50_Mean.
Test [6] in a line: Luminescence Cell-Based Dose Confirmation HTS to Identify Activators of 5'UTR Stem-Loop Driven Alpha-Synuclein mRNA Translation in H4 Neuroglioblastoma Cells. [Related pubchem assays: 1829 (Project Summary), 1814 (Primary HTS)]. In kind it is functional.
A short description of test [7]: Luminescence Cell-Based Dose Response HTS to Identify Activators of Luciferase Translation or Activity in H4 […] Cells. [Related pubchem assays: 1829 (Project Summary), 1814 (Primary HTS)]. It counts as functional.
The test system of the next test is H4. Description: Luminescence Cell-Based Dose Response HTS to Identify Activators of 5'UTR Stem-Loop Driven Prion Protein mRNA Translation in H4 Neuroglioblastoma Cells. [Related pubchem assays: 1829 (Project Summary), 1814 (Primary HTS)]. It counts as functional. Conditions: Homo sapiens.
The target in the next test is Genome polyprotein (dengue virus type 2, UniProt P29990). Description: Dengue-2 NS5 methyltransferase inhibitors, primary screen, biochemical, confirmation dose response (AID 588689). In kind it is functional.
Sequence of Genome polyprotein (P29990 2492-3391 limits assumed): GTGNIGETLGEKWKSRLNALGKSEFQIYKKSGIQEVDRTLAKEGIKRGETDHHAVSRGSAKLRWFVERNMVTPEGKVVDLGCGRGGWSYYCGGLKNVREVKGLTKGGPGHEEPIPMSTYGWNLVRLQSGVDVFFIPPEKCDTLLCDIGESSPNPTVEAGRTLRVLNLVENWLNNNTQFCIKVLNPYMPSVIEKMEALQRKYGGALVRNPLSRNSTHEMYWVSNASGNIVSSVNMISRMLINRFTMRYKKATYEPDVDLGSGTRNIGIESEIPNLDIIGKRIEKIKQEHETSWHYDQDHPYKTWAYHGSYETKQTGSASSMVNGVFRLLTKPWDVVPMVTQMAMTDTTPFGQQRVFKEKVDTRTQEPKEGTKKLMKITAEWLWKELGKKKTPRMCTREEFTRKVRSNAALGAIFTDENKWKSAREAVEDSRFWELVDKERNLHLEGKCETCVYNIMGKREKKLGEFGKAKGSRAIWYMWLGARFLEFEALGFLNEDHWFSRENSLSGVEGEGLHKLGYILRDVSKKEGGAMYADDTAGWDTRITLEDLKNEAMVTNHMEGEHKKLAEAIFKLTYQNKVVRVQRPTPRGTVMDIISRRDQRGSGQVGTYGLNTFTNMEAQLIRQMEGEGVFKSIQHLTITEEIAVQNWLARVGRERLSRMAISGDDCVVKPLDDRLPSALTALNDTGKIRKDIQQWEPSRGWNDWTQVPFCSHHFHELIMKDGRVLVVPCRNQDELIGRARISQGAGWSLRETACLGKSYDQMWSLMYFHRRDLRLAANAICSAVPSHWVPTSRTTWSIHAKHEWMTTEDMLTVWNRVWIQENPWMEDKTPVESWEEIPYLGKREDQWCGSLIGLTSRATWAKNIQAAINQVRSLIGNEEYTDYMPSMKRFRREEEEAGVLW
Test [8] deals with T3, Rac GTPase-activating protein 1 (Homo sapiens, UniProt Q9H0H5).
T3 sequence (Q9H0H5 whole entry): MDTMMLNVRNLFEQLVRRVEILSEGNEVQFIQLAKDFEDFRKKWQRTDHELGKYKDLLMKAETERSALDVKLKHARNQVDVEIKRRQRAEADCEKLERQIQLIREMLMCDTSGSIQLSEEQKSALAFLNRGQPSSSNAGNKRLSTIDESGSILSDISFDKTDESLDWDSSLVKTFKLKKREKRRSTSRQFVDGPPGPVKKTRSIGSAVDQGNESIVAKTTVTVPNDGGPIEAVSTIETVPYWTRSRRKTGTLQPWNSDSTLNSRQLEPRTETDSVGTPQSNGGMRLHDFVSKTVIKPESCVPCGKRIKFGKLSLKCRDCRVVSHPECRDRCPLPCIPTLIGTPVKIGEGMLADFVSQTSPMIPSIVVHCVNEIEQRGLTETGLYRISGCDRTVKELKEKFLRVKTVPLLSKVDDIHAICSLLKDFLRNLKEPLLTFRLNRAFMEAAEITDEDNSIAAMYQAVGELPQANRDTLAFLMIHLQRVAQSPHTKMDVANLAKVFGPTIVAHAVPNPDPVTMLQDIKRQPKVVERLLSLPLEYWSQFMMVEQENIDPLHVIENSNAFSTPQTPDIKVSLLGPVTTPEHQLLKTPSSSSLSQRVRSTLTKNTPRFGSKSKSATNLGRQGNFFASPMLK
Description: MgcRacGAP GTPase-activating activity inhibitors, confirmation, biochemical, ADP Hunter fluorescence, primary and confirmatory (AID 624330). In kind it is functional.

Test [9] in a line: NIH-3T3 fibroblast cytotoxicity, dose response, cytotoxicity control, cell-based, fluorescence, Alamar Blue, secondary assay (AID 2327).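 Also: NIH-3T3 mouse fibroblasts cultured with fluconazole at 8 µg/mL.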 It counts as functional.
Test [10] in a line: inhibitors of firefly luciferase expression or activity, dose response, H4 neuroglioma cells, luminescence (AID 1990). In kind it is functional, cell-based.
Test [11] can be described thus: Luminescence Cell-Based Dose Response HTS to Identify Inhibitors of 5'UTR Stem-Loop Driven Prion Protein mRNA Translation in H4 Neuroglioblastoma Cells. [Related pubchem assays: 1827 (Project Summary), 1813 (Primary HTS)]. It counts as functional.
The nature of test [12]: inhibitors of SNCA 5'UTR-driven reporter translation, confirmation, H4 neuroglioma cells, luminescence (AID 1988). It counts as functional, cell-based.
The nature of test [13]: C. albicans growth with fluconazole, confirmation, fluorescence, retest (AID 2467). It counts as functional, cell-based.
Test [14] is described as follows: inhibitors of intracellular T. cruzi replication, confirmation, NIH3T3 host cells, beta-gal luminescence (AID 2044).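 Also: intracellular parasites grown in NIH/3T3 mouse fibroblasts as host cells; luminescent beta-galactosidase reporter signal from transgenic T. cruzi replicating inside host cells; inhibitors lower the luminescence signal.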 It counts as functional, cell-based.
Test [15] in a line: cytotoxicity toward NIH3T3 fibroblasts, dose response, counter-screen, cell-based, ATP luminescence, mouse fibroblasts (AID 2010).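 Also: cells exposed to compound for about 90 hours before reading.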 It counts as functional.

Sequence of Large T antigen (P03070 whole entry): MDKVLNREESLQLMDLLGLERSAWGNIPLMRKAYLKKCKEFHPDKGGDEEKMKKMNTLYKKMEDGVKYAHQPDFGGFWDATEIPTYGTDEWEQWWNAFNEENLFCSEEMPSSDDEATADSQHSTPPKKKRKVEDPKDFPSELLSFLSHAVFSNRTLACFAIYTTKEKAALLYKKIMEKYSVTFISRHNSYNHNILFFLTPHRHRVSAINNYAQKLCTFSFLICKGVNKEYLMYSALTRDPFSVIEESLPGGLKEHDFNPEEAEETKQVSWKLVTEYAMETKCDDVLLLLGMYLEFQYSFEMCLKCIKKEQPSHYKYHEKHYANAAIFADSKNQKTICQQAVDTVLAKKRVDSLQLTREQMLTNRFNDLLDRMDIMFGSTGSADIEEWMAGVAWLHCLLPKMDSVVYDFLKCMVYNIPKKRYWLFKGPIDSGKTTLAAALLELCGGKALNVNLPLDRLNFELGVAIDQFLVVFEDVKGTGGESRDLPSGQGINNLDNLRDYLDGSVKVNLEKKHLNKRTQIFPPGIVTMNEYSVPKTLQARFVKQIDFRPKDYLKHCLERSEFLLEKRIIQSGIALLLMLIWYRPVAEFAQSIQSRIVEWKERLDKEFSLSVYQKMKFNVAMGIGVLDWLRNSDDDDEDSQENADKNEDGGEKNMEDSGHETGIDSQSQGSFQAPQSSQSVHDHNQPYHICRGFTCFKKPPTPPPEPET

As for `Cc1ccc(NC(=O)COC(=O)CN2C(=O)NC3(CCCC3)C2=O)cc1S(=O)(=O)N(C)C`, the IC50 in [1] was > 47.1 µM (inactive). Also, the EC50 in test [2] was > 53 µM (inactive).

Consider `C1CCCCC1.OCCN1CCN(C2Cc3cc(Cl)ccc3Sc3ccc(Cl)cc32)CC1` (configuration not stated), for which the CC50 in test [3] is 13.8 µM (active). The AC50 in the test with INS1 is 13 µM (active).

In the case of `Clc1ccc(-c2csc(N3CCOCC3)n2)cc1`, the IC50 in test [1] was > 47.1 µM (inactive). In addition, the EC50 in [2] was > 53 µM (inactive).

As for `CCN(CC)c1ccc(NC(=O)c2cccc(C)c2OC)c(C)c1`, at Large T antigen, the IC50 is 32 µM (active).

In the case of `O=[N+]([O-])c1ccc(N2CCN(c3ccc(O)cc3)CC2)cn1`, the IC50 on Large T antigen is 26.7 µM (active).

As for `COc1ccc(Cl)cc1N=C(S)Nc1ccccc1F`, the IC50 in test [4] and in test [5] was > 66 µM (inactive) each time.

As to `COC(=O)CC(NC(=S)NC(=O)c1ccccc1)c1ccc(Br)cc1` (configuration not stated), the IC50 in [4] and in [5] was > 66 µM (inactive) in each case.

For the compound `CN1/C(=C\C(=O)c2cccc([N+](=O)[O-])c2)Sc2ccccc21`, the IC50 in test [4] and in [5] was > 66 µM (inactive) each time.

For the compound `CC(c1nc(O)c2ccccc2n1)N(C)c1ccc2ccccc2c1` (configuration not stated), the IC50 in [4] and in [5] was > 66 µM (inactive) each time.

Regarding `O=C(NC1=NCCS1)c1cccs1`, the IC50 in test [4] and in test [5] was > 66 µM (inactive) throughout.

Regarding `Cc1c(NC(=O)COC(=O)COc2ccc(Nc3ccccc3)cc2)c(=O)n(-c2ccccc2)n1C`, on Large T antigen, the IC50 is 35.3 µM (active).

For `CC1(C)Cc2ccccc2-c2c1c(=O)n(Cc1ccccc1)c1nnnn21`, the IC50 in test [1] is > 47.1 µM (inactive). In [2], the EC50 is > 53 µM (inactive).

On to `COc1ccc(NC(=O)NCCCN2CCc3ccccc3C2)cc1`, for which the IC50 in test [1] is > 47.1 µM (inactive). The EC50 in [2] was > 53 µM (inactive).

In the case of `CSc1nc2ncc(-c3ccsc3)c(N)n2n1`, the EC50 is > 120 µM (not active) in test [6], 19.5 µM (active) in [7] and 27.2 µM (active) with H4.

As to `CCc1ccc(NC(=O)Cn2nc(C(=O)O)c3ccccc3c2=O)cc1`, the IC50 in test [1] is > 47.1 µM (inactive). Moreover, in test [2], the EC50 was > 53 µM (inactive).

On to `Cn1c2c(c(=O)[nH]c1=O)C(c1ccc(O)cc1)C1=C(O)c3ccccc3C1=N2` (configuration not stated), for which the EC50 (in test [6]; in test [7]; in the test on H4) was > 120 µM (not active) throughout.

Consider `Cc1ccc(CNc2ccc(N3CCOCC3)cc2)cc1`, for which the IC50 at Large T antigen is 5.62 µM (active).

On to `COc1ccc(CN2CCN(C(=O)c3cccs3)CC2)c(OC)c1OC`, for which, in test [1], the IC50 was > 47.1 µM (inactive). Besides, in [2], the EC50 is > 53 µM (inactive).

On to `CC(C)(C)c1ccc(C(=O)NNC(=O)C2CCCCC2)cc1`, for which the values for the EC50 (in [6]; in test [7]; with H4) were 19.6 µM (active), 30.7 µM (active) and 59.3 µM (active), respectively.

Turning to `COc1cc(/C=N/NC(=O)c2ccccc2O)ccc1OC(=O)CC1SC(=O)NC1=O` (configuration not stated), the IC50 on Large T antigen was 35.1 µM (active).

`O=C1c2ccccc2C2C3=C(O)CC(c4ccco4)CC3=Nc3ccccc3N12` (configuration not stated): the EC50 in [6] is > 120 µM (not active); in [7], 41 µM (active); in the test with H4, > 120 µM (not active).

Consider `Cc1ccc(C(C2=C(O)CC(C)(C)CC2=O)C2C(=O)CC(C)(C)CC2=O)s1` (configuration not stated), for which the IC50 at Genome polyprotein was 29.4 µM (active); in test [8], 62.9 µM (active).

Turning to `CC(C)(C)C(=O)Nc1ccc(C(=O)N/N=C/c2ccccc2OC(=O)c2ccc(Cl)cc2)cc1`, in the test on INS1, the AC50 was 2.83 µM (active).

`Oc1ccc(N2CCN(C(c3ccncc3)c3nnnn3C3CCCC3)CC2)cc1` (configuration not stated): the IC50 at Large T antigen is 5.61 µM (active).

Take `CC(C)[C@H]1C(=O)O[C@H](C(C)C)C(=O)N(C)[C@@H](C(C)C)C(=O)O[C@H](C(C)C)C(=O)N(C)[C@@H](C(C)C)C(=O)O[C@H](C(C)C)C(=O)N1C` [ENNIATIN B]: the EC50 in test [9] is 3.22 µM (inconclusive); in test [10], 5.62 µM (active); in test [11], > 120 µM (not active); in test [12] it was > 120 µM (not active); in [13], 0.374 µM (active); in [14], 0.853 µM (active). Moreover, the EC50 in test [15] was 3.66 µM (active). Besides, the half-maximal activity concentration (AC50) in the test on INS1 is 2.99 µM (active).

For `O=[N+]([O-])c1ccc(C(O)CSC(=S)N2CCCCC2)cc1` (configuration not stated), the EC50 in test [6] was 7.46 µM (active); in test [7], 56.4 µM (active); in the test with H4 it was 32.7 µM (active).

For the compound `Cc1cc(Cl)ccc1N=C(S)Nc1cccnc1`, the IC50 in test [4] and in [5] was > 66 µM (inactive) throughout.

For the compound `c1ccc(NC2=Nc3ccccc3CS2)cc1`, the EC50 in test [6] is 0.465 µM (active); in [7], 0.409 µM (active).

As for `Cc1nn(C)c(C)c1NC(=O)c1cc2nc(-c3ccco3)cc(C(F)(F)F)n2n1`, the IC50 in [1] was > 47.1 µM (inactive). Also, in test [2], the EC50 was > 53 µM (inactive).

On to `CCc1nc2cccnc2n1-c1ccc(C(=O)O)cc1`, for which the IC50 in [4] was > 66 µM (inactive); in [5], 49.5 µM (inactive).

With `CCOc1cccc(-c2csc(C3COc4ccccc4O3)n2)c1` (configuration not stated), the EC50 in test [6] was 13.4 µM (active); in the test with H4 it was 37.5 µM (active).

Regarding `COc1ccc(NC(=O)CN(C)C(=O)/C=C/c2ccc(S(=O)(=O)N3CCCCCC3)cc2)cc1`, the concentration at half-maximal activity (AC50) with INS1 is 24.3 µM (active).
